In ChEMBL document CHEMBL3507680, “University of Dundee, Gates Library screen for HepG2 cell viability”:

Test: Human HepG2 cell viability assay in 384 well format
Format: toxicity, cell-based
Set-up: dose 125 nL, time 70.5 hour; cytotoxicity at 70.5 h: concentration not given beside the values
Conditions: HepG2 cells, read-out: Inhibition

Compound | cytotoxicity at 70.5 h [%]
Cc1cnn(CCNCc2ccc(OCc3csc(C)n3)cc2)c1 | -4.31
O=C(NCCc1cccc(O)c1)NC1CCN(c2ccccc2)C1=O (stereo not given) | 1.16
O=C(O)c1ccc(F)c(S(=O)(=O)Nc2ccc(-n3cccn3)c(Cl)c2)c1 | -6.87
CCCC(NC(=O)c1ccc(OC)cc1F)c1nnn[nH]1 (stereo not given) | -3.7
CCCC(NC(=O)c1cc(C)ccc1C)c1nnn[nH]1 (stereo not given) | 13.6
COCC(=O)N1CCC2(CC1)CN(c1ccsc1)C(=O)CO2 | -8.62
O=C(c1ccsc1)N1CCN2C[C@H](OCc3ccccn3)C[C@H]2C1 | -10.1
Cc1cccc(CN2CCn3c(C(=O)N(C)C)cnc3C2)c1 | -4.36
O=C(C1CCOCC1)N1CCC2(CC1)CN(c1ccsc1)C(=O)CO2 | -6.23
Cc1noc(C)c1CN1C[C@@H]2COC[C@@H](CC(=O)N3CCCO3)[C@@H]2C1 | -6.49
Cc1noc(C)c1CN1C[C@@H]2COC[C@H](C(=O)N3CCCO3)[C@@H]2C1 | 31.1
O=C(c1ccco1)N1CCO[C@@H]2CN(c3ccccc3)CC[C@@H]2C1 | 29.2
Cn1cccc1C(=O)NCc1cn2c(n1)CN(CC1CCOC1)CC2 (stereo not given) | 17.2
O=C([C@H]1CN(Cc2nccs2)C[C@H]2OCC[C@@H]12)N1CCCC1 | 10.2
Cc1csc(CN2C[C@@H]3COC[C@]3(C(=O)NCc3ccco3)C2)n1 | 14.6
CC(=O)NCC(=O)N1CCN(C)c2ncccc2C1 | -11.3
Cc1cc(C(=O)N2CC[C@H]3[C@@H]2CCC(=O)N3c2ccccc2)no1 | -8.05
CC(C)CCN1CCc2nc(N3CCOCC3)nc(NC(C)C)c2C1 | -16.5
c1cc(CN2CCCn3nnc(COCC4CC4)c3C2)ccn1 | -15.6
CN(C)C(=O)CN1CCC2(CCCN(Cc3ccsc3)C2)C1=O (stereo not given) | -15.6
c1cnc(N2CCOCC3(CNCCO3)C2)nc1 (stereo not given) | 15.5
Cn1cccc1C(=O)NCc1cn2c(n1)CN(C(=O)c1ccsc1)CC2 | -8.13
CN1CC2(COCCN(c3ncccn3)C2)OCC1=O (stereo not given) | -11.5
CCCN1CCc2nc(N3CCOCC3)nc(NC(C)C)c2C1 | -8.9
Cc1nc(N2CCOCC2)nc2c1CN(CC(=O)N(C)C)CC2 | -13.5
COCC1CN(C(=O)c2cccs2)Cc2nccn2C1 (stereo not given) | -8.64
COCCC(=O)N1CCC2(CCN(Cc3cccc(F)c3)C2)C1 (stereo not given) | 24.8

Compound | cytotoxicity at 70.5 h [%]
Fc1cnc(NCC2Cn3nnc(-c4ccccc4)c3CO2)nc1 (stereo not given) | 24.4
Fc1cccc(-c2nnn3c2COC(CNc2ncccn2)C3)c1 (stereo not given) | 26.8
c1csc(CN2CC[C@H]3O[C@@H](COCC4CC4)CC[C@H]32)c1 | 27
CCCS(=O)(=O)NC1CCc2c(ccc(=O)n2CC2CC2)C1 (stereo not given) | -8.69
COCCN1CCn2cc(CN(C)Cc3ccco3)nc2C1 | -7.59
c1ccc(-c2nnn3c2COC(CNCC2CC2)C3)cc1 (stereo not given) | -0.253
Cc1ccc2c(n1)N(CCN(C)C)CCN(C(=O)N1CCOCC1)C2 | -3.39
C[C@H]1C[C@H]2CN(C(=O)CCOc3ccccc3)CC[C@H]2O1 | -1.04
Cn1cccc1C(=O)N1CCn2cc(CN3CCCC3)nc2C1 | -1.14
C[C@H]1C[C@H]2CN(C(=O)CC3CC3)CC[C@H]2O1 | -7.47
CCC1(CO)CCCN(C(=O)c2cc(COc3cccc(F)c3)[nH]n2)C1 (stereo not given) | -3.53
Cc1nc[nH]c1CN1CCCC12CCN(c1ccccn1)CC2 | -3.64
CN(C)CCN1CC2(CCC1=O)CCN(C(=O)c1ccn(C)n1)CC2 | -2.52
CCn1c(C2CCCN(Cc3ccnc4ccccc34)C2)nn(C)c1=O (stereo not given) | -7.68
CCC[C@H]1CN(S(=O)(=O)c2ccc(Cl)cc2)C[C@@H]1NC(C)=O | 22.5
COc1cc(Oc2ccc(C#N)cn2)ccc1CN1CCCC1 | -5.77
O=C(NCCC1CCCCO1)c1coc(COc2ccc(F)cc2)n1 (stereo not given) | -6.58
OC1(CN2CCC(Oc3cccc(C(F)(F)F)c3)CC2)CCNC1 (stereo not given) | -7.31
O=C(O)c1cccnc1N1CCN(Cc2ccc(F)cc2)C(CCO)C1 (stereo not given) | 22.4
O=C(c1ccc(-n2cccn2)cc1Cl)N1CCCC(O)(CO)C1 (stereo not given) | -4.68
N[C@H]1CN(CCCOc2ccccc2)C[C@@H]1C1CC1 | -3.74
Cc1nccn1CCC(=O)N1CCCN(CCCc2ccccc2)CC1 | 1.37
O=C(c1cccc(-c2ncc[nH]2)c1)N1CC[C@H](CO)[C@@H](O)C1 | -2.73
Cc1cc(N2CCCC(N(C)C)C2)n2nc(C)cc2n1 (stereo not given) | -17
Cc1noc2ncnc(NC(CC(C)(C)C)c3cccnc3)c12 (stereo not given) | -14
c1ccc(-c2cccc(N3CCC(NCCc4cscn4)CC3)c2)cc1 | -7.94
CN1CSC[C@H]1C(=O)N1CCC(Cc2ccccc2F)CC1 | -4.33

Compound | cytotoxicity at 70.5 h [%]
CN(Cc1cc(C2CC2)on1)C(=O)CN1CC(c2ccccc2)CC1=O (stereo not given) | -8.22
CCc1nc(CNC(=O)c2ccc(C(C)N3CCCCC3)o2)cc(=O)[nH]1 (stereo not given) | -6.44
Cc1cc(=O)c(C(=O)N2CCC(C(O)Cc3ccccc3)CC2)c(C)[nH]1 (stereo not given) | -14.4
Cc1ccccc1OC1(C(=O)O)CCN(C(=O)CCc2ccco2)CC1 | -3.93
COCCN(CCOC)c1nc2c(s1)c(C)nn2C | -13.8
Cc1c[nH]c(CN2CCCCC2CCn2cccn2)c(C)c1=O (stereo not given) | -10.2
COc1ccc(-c2cc(C3CC3)c(C#N)c(N)n2)cc1F | 11.2
Cc1cc(C)n(CCCN(C)C(=O)[C@H]2CCCO2)n1 | -14.9
O=C(c1ccc(-c2cccc3c2CCNC3)o1)N1CCCC1 | -9.64
Cc1ccc(-c2nc3cc(S(=O)(=O)N4CCCC4)ccc3n2C)o1 | -11.7
CN(C)C(=O)c1cnc2n1CCN(Cc1cccc(C#N)c1)C2 | -7.44
COCCN1C(=O)CC[C@@H]2[C@H]1CCN2Cc1cccc(C#N)c1 | -11.2
Cc1cc(CN2C[C@@H]3COC[C@@H](C(=O)N4CCCCO4)[C@@H]3C2)no1 | 20.1
CN(C)[C@@H]1CCN(C(=O)c2cccn2C)[C@H]1Cc1cnn(C)c1 | -11.3
Cc1cc(CN2C[C@@H]3COC[C@H](C(=O)N4CCCCO4)[C@@H]3C2)no1 | -11.3
CN(C)[C@@H]1CCN(C(=O)c2cccc(C#N)c2)[C@H]1Cc1cnn(C)c1 | -8.57
Cc1ccccc1C(=O)N1CC[C@@H](N(C)C)[C@@H]1Cc1cnn(C)c1 | 25.4
CCN1C[C@H]2[C@@H](C1)N(S(=O)(=O)c1ccccc1F)CC[C@H]2OC | -3.89
Cc1noc(C)c1CN1C[C@@H]2COC[C@@H](CC(=O)N3CCCCO3)[C@@H]2C1 | -6.43
Cc1occc1C(=O)N1CCO[C@H]2[C@H](Oc3cccnc3)CC[C@@H]21 | 14.6
O=C(O)CCC(=O)N1CCN(CC2CC2)c2ncccc2C1 | 22.2
O=C(Cc1ccsc1)N1CCN(CC2CC2)c2ncccc2C1 | -14
CN(C)C(=O)CN1CCC2(CCCN(Cc3cccs3)C2)C1=O (stereo not given) | -12.9
Cc1occc1C(=O)N1Cc2nccn2CC(CN2CCCC2)C1 (stereo not given) | -14.1
CC(C)NC(=O)N1CCN(CC2CC2)c2ncccc2C1 | -15.2
Cc1occc1C(=O)N1Cc2nccn2CC(CN2CCOCC2)C1 (stereo not given) | -6.67
COCCN1CCCC2(CCN(c3ccsc3)C2=O)C1 (stereo not given) | -7.27

Compound | cytotoxicity at 70.5 h [%]
COCCC(=O)N1CCC2(CCN(Cc3cccc(F)c3)CC2)C1 | -4.51
COCCNC(=O)[C@H]1C[C@@H]2CCN(CCc3ccccc3)C[C@H]2O1 | -11.2
O=C(NCC1CC1)[C@H]1C[C@@H]2CCN(CCc3ccccc3)C[C@H]2O1 | -4.59
O=C(c1ccc(F)cc1)N1CCN2C[C@H](OCc3cccnc3)C[C@H]2C1 | -11
CO[C@H]1CCN(S(=O)(=O)c2cccnc2)[C@@H]2CN(CC3CC3)C[C@H]12 | -6.81
CCN1C[C@@H]2[C@@H](OC)CCN(S(=O)(=O)c3cccnc3)[C@@H]2C1 | -10.5
CO[C@@H]1CCN(S(=O)(=O)c2cccnc2)[C@@H]2CN(CC3CC3)C[C@@H]21 | -8.38
Cc1ccc(CN2CCOC3(COCCN(C(C)C)C3)C2)o1 (stereo not given) | -12.3
Cc1ccc(CN2CCCn3nnc(COCCN(C)C)c3C2)s1 | -16
Cn1cccc1C(=O)NCc1cn2c(n1)CN(Cc1ccccn1)CC2 | -13.2
Cc1ncsc1CN1C[C@@H]2COC[C@]2(C(=O)NCc2ccccn2)C1 | -9.2
Cc1ncsc1CN1C[C@@H]2COC[C@]2(C(=O)NCc2cccnc2)C1 | -14.8
c1cncc(CN2CCCn3nnc(COCC4CC4)c3C2)c1 | -9.26
Fc1cccc(N2CCCC3(CN(Cc4ccco4)CCO3)C2)c1 (stereo not given) | -11.7
Cc1ccc2c(n1)N(CCN(C)C)CCN(C(=O)c1ccoc1)C2 | -11.8
Cn1cc(CN2CC[C@H]3O[C@@H](COCc4cccnc4)CC[C@H]32)cn1 | -12
Cn1cc(CN2CCOC3(CCCN(c4cccc(F)c4)C3)C2)cn1 (stereo not given) | -7.93
Cc1ccc(CN2CCOC3(CCCN(c4cccc(F)c4)C3)C2)o1 (stereo not given) | -6.42
Fc1ccc(CN2CC[C@H]3O[C@@H](COCc4cccnc4)CC[C@H]32)cc1 | -6.39
c1ccc(COC[C@H]2CC[C@H]3[C@H](CCN3Cc3cccs3)O2)nc1 | -3.77
CCCC(=O)N1CCN(CCN(C)C)c2nc(C)ccc2C1 | -2.97
CN(Cc1cn2c(n1)CN(Cc1ccc(F)cc1)CC2)Cc1ccco1 | -8.36
c1ccc(COC[C@H]2CC[C@H]3[C@H](CCN3Cc3cccnc3)O2)nc1 | 9.23
COc1ccc(CN2C[C@@H]3COC[C@@H](N4CCN(C)CC4)[C@@H]3C2)cc1 | 0.325
